Patent US20090286718A1, “Stable Aqueous Cyclosporin Compositions” (SIRION THERAPEUTICS, INC., priority 2008, published 2009)
Read-outs that look alike come from different tables or passages of the source.

Settings: initial 0.220 %
Protocol: The samples were tested for stability after having been stored at 25° C. for three months.

Sorbic Acid Concentration (%) After 3 months storage at 25 C. (pH = 5.5): 0.13%
Sorbic Acid Concentration (%) After 3 months storage at 25 C. (pH = 6.0): 0.21%
Sorbic Acid Concentration (%) After 3 months storage at 25 C. (pH = 6.5): 0.21%
Structure (SMILES): C/C=C/C=C/C(=O)O [Sorbic Acid, sorbic acid]
